Source: patent US8722052B2, “Vaccinia virus protein A46 peptide and use thereof” (priority 2008, dated 2014)
Read-outs that look alike come from different tables or passages of the source.

Tests used:
[1] = test system: TLR4; type: cell-based, human; settings: THP-1; for inhibition of LPS-induced TNFα production: 6 h
[2] = biological target: T1, TLR4 (Mus musculus, UniProt Q9QUK6); assay: LPS-induced TNFα in RAW264.7 cells, ELISA; type: cell-based, murine; design: endogenous in cells; host or cells: RAW264.7; immortalised murine bone-marrow-derived macrophages
T1 sequence (Q9QUK6 26-835): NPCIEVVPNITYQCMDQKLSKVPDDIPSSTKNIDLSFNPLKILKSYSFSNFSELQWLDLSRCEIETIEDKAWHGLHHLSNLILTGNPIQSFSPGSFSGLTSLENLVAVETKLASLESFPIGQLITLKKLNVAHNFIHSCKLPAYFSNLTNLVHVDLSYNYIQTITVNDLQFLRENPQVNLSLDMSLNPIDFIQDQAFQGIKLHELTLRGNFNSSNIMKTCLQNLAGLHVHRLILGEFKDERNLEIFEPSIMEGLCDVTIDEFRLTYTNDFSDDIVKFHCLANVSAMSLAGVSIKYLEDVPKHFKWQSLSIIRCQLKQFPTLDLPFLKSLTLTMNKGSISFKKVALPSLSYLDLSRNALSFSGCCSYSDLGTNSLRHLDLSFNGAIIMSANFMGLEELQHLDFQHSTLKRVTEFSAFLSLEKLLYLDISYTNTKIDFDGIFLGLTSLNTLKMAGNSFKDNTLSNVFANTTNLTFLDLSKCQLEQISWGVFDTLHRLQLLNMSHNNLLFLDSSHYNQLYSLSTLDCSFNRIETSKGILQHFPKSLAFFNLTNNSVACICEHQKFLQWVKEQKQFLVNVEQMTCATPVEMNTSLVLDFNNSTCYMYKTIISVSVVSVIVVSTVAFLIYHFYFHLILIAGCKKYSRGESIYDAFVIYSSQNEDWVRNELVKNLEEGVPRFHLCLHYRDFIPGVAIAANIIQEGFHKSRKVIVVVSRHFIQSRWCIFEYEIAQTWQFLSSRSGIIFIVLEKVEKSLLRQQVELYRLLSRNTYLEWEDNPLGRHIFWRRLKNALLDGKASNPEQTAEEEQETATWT
T1 sequence (Q9JHF9 19-160 partner): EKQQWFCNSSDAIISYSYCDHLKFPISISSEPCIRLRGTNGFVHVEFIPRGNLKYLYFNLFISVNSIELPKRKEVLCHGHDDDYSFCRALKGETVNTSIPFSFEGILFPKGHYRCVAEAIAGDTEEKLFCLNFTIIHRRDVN
Method: FIGS. 5A and B are bar charts showing the dose-dependent inhibitory effect of A464R on LPS-induced TNFα in murine RAW264.7 cells. A464 (SEQ ID NO. 20) was added to the cells at a concentration of 5, 20 or 50 μM 1 hour before stimulating with 100 ng/ml LPS. Supernatant was collected 24 hours after stimulation and assayed for TNFα by ELISA (A) and cells were assayed for viability by the MTT assay (B.). No peptides were added to the control wells (black bars). Data is representative of at least three experiments each performed in triplicate and is expressed as mean±s.d;
FIGS. 6A and B are bar charts showing the effect of peptides derived from A46 on LPS-induced TNFα in murine RAW264.7 cells. A46 peptides were added to the cells at a concentration of 1 or 5 μM 1 hour before stimulating with 10 ng/ml LPS. Supernatants were collected 6 hours after stimulation and assayed for TNFα by ELISA. No peptides were added into the control wells (black bars). (A) peptides A461-A467 (SEQ ID NO. 17 to 23). (B) peptides A468-A4614 (SEQ ID NO. 24 to 30) (excluding A4610 SEQ ID NO. 26 and A4612 SEQ ID NO. 28). Data is representative of at least two experiments each performed in triplicate and is expressed as mean±s.d;
FIGS. 22 A and B are bar charts showing the effect of short A467 and A464 peptides, with 9R on either N- or C-terminus, on LPS- induced TNFα production in murine RAW264.7 cells. Cells were seeded in 96 well plates (1.5×10^5 cells/ml) 24 hours before treatment. Short A467 and short A464 peptides with the 9R delivery sequence on either the C-terminus (sA464C9R) (SEQ ID NO. 56) (A) or the N-terminus (sA464N9R) (SEQ ID NO. 57) (B) were added to the cells at a concentration of 5 or 25 μM 1 hour before stimulating with 10 ng/ml LPS. Normal full length A467 (SEQ ID NO. 23) and A464 (SEQ ID NO. 20) peptides were added at a concentration of 5 μM as positive controls. Supernatants were collected 6 hours after stimulation with the agonist and assayed for TNFα, by ELISA. No peptides were added to the control wells (black bars). Data is representative of at least three experiments each performed in triplicate and is expressed as mean±s.d;
Cytokine and chemokine production from cells or mouse serum was measured by ELISA using Duoset kits from R&D systems, according to the manufacturer's instructions.

Chain of TLR4 (O00206 24-839): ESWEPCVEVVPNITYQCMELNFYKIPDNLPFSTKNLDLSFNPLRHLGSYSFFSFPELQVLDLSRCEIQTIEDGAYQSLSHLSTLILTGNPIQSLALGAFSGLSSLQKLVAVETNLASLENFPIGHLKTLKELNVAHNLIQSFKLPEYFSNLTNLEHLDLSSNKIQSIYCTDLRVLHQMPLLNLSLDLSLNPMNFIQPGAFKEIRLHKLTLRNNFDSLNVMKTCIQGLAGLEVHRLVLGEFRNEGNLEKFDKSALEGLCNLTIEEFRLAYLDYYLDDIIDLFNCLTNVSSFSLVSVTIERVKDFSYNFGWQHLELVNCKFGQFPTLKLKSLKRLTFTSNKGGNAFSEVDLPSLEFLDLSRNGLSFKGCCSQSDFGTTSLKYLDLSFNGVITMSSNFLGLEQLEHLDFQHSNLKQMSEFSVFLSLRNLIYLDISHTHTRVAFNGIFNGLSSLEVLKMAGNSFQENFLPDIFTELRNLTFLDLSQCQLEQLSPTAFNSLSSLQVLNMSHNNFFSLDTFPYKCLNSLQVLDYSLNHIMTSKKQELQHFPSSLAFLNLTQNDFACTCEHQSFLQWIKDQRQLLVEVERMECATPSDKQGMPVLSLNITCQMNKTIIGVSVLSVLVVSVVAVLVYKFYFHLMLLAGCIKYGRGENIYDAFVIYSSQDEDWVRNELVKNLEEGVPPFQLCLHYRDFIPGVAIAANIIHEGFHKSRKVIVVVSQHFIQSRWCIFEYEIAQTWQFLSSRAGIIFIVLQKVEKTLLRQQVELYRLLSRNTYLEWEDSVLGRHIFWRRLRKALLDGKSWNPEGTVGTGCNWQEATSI
Chain of TLR4 (Q9Y6Y9 17-160 partner limits assumed): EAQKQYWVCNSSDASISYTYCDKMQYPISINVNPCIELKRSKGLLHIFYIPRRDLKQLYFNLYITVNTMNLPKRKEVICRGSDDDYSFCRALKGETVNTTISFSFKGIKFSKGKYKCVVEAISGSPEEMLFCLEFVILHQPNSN

KYSFKLILAEYRRRRRRRRR [Peptide A464]
inhibition of LPS-induced hTNFα production, peptide added after LPS ([1]; 5 and 10 μM peptide added 1 hour after LPS stimulation): almost completely inhibited
inhibition of LPS-induced TNFα production ([1]; peptide 5 or 10 μM 1 h before 10 ng/ml LPS): complete inhibition of TLR4 was achieved at 5 and 10 μM
inhibition of LPS-induced TNFα production ([1]; peptide 20 or 40 μM 1 h before 100 ng/ml LPS): 20 μM A464 (SEQ ID No. 20) inhibited TLR4-mediated TNFα production
inhibition of LPS-induced mTNFα ([2]; peptide 1 or 5 μM 1 h before 10 ng/ml LPS, 6 h): inhibited LPS-induced mTNFα at 1 and 5 μM
inhibition of LPS-induced murine TNFα production ([2]; peptide 5, 20 or 50 μM 1 h before 100 ng/ml LPS, 24 h): potently inhibited LPS-induced murine TNFα production in RAW264.7 cells at just 5 μM
